Reference: ChEMBL document CHEMBL2440027, “Further SAR studies on bicyclic basic merbarone analogues as potent antiproliferative agents” (Bioorg Med Chem, 2013)

Columns and labels:
Type in all cases: functional
SN12C = test: Growth inhibition of human SN12C cells assessed as cell growth at 10 uM after 48 hrs by sulforhodamine B assay relative to control; conditions: read-out: Activity
CCRF-CEM [1] = test: Growth inhibition of human CCRF-CEM cells assessed as cell growth at 10 uM after 48 hrs by sulforhodamine B assay relative to control; conditions: read-out: Activity
NCI-H522 [2] = test: Growth inhibition of human NCI-H522 cells after 48 hrs by sulforhodamine B assay; conditions: NCI-H522, 48 h
SK-MEL-5 = test: Growth inhibition of human SK-MEL-5 cells after 48 hrs by sulforhodamine B assay; conditions: SK-MEL-5, 48 h
HL-60(TB) = test: Growth inhibition of human HL-60(TB) cells after 48 hrs by sulforhodamine B assay; conditions: HL-60, 48 h
786-0 [3] = test: Growth inhibition of human 786-0 cells after 48 hrs by sulforhodamine B assay; conditions: 786-0, 48 h
SR = test: Growth inhibition of human SR cells after 48 hrs by sulforhodamine B assay
T47D [4] = test: Growth inhibition of human T47D cells after 48 hrs by sulforhodamine B assay
OVCAR-5 = test: Growth inhibition of human OVCAR5 cells assessed as cell growth at 10 uM after 48 hrs by sulforhodamine B assay relative to control; conditions: OVCAR-5, 48 h, read-out: Activity
SK-OV-3 = test: Growth inhibition of human SKOV3 cells after 48 hrs by sulforhodamine B assay; conditions: SK-OV-3, 48 h
MDA-MB-435 [5] = test: Growth inhibition of human MDA-MB-435 cells assessed as cell growth at 10 uM after 48 hrs by sulforhodamine B assay relative to control; conditions: MDA-MB-435, 48 h, read-out: Activity
MDA-MB-435 [6] = test: Growth inhibition of human MDA-MB-435 cells after 48 hrs by sulforhodamine B assay; conditions: MDA-MB-435, 48 h
T47D [7] = test: Growth inhibition of human T47D cells assessed as cell growth at 10 uM after 48 hrs by sulforhodamine B assay relative to control; conditions: read-out: Activity
SW-620 = test: Growth inhibition of human SW620 cells assessed as cell growth at 10 uM after 48 hrs by sulforhodamine B assay relative to control; conditions: SW-620, 48 h, read-out: Activity
UO-31 = test: Growth inhibition of human UO31 cells after 48 hrs by sulforhodamine B assay; conditions: UO-31, 48 h
CCRF-CEM [8] = test: Growth inhibition of human CCRF-CEM cells after 48 hrs by sulforhodamine B assay
SF-268 = test: Growth inhibition of human SF268 cells assessed as cell growth at 10 uM after 48 hrs by sulforhodamine B assay relative to control; conditions: SF-268, 48 h, read-out: Activity
[9] = Growth inhibition of human HCC2998 cells after 48 hrs by sulforhodamine B assay; conditions: HCC 2998, 48 h
HCT-116 = test: Growth inhibition of human HCT116 cells after 48 hrs by sulforhodamine B assay; conditions: HCT-116, 48 h
IGROV-1 [10] = test: Growth inhibition of human IGROV1 cells assessed as cell growth at 10 uM after 48 hrs by sulforhodamine B assay relative to control; conditions: IGROV-1, 48 h, read-out: Activity
SF-295 = test: Growth inhibition of human SF295 cells after 48 hrs by sulforhodamine B assay; conditions: SF-295, 48 h
[11] = Growth inhibition of human EKVX cells assessed as cell growth at 10 uM after 48 hrs by sulforhodamine B assay relative to control; conditions: read-out: Activity
NCI-H522 [12] = test: Growth inhibition of human NCI-H522 cells assessed as cell growth at 10 uM after 48 hrs by sulforhodamine B assay relative to control; conditions: NCI-H522, 48 h, read-out: Activity
IGROV-1 [13] = test: Growth inhibition of human IGROV1 cells after 48 hrs by sulforhodamine B assay; conditions: IGROV-1, 48 h
NCI-H322M = test: Growth inhibition of human NCI-H322M cells assessed as cell growth at 10 uM after 48 hrs by sulforhodamine B assay relative to control; conditions: read-out: Activity
SNB-75 = test: Growth inhibition of human SNB75 cells assessed as cell growth at 10 uM after 48 hrs by sulforhodamine B assay relative to control; conditions: SNB-75, 48 h, read-out: Activity
SNB-19 = test: Growth inhibition of human SNB19 cells assessed as cell growth at 10 uM after 48 hrs by sulforhodamine B assay relative to control; conditions: SNB-19, 48 h, read-out: Activity
HT-29 = test: Growth inhibition of human HT-29 cells after 48 hrs by sulforhodamine B assay; conditions: HT-29, 48 h
786-0 [14] = test: Growth inhibition of human 786-0 cells assessed as cell growth at 10 uM after 48 hrs by sulforhodamine B assay relative to control; conditions: 786-0, 48 h, read-out: Activity
COLO 205 = test: Growth inhibition of human COLO205 cells assessed as cell growth at 10 uM after 48 hrs by sulforhodamine B assay relative to control; conditions: COLO 205, 48 h, read-out: Activity
RPMI-8226 = test: Growth inhibition of human RPMI8226 cells after 48 hrs by sulforhodamine B assay; conditions: RPMI-8226, 48 h
ACHN = test: Growth inhibition of human ACHN cells assessed as cell growth at 10 uM after 48 hrs by sulforhodamine B assay relative to control; conditions: read-out: Activity
A549 = test: Growth inhibition of human A549/ATCC cells assessed as cell growth at 10 uM after 48 hrs by sulforhodamine B assay relative to control; conditions: A549, 48 h, read-out: Activity
K562 = test: Growth inhibition of human K562 cells after 48 hrs by sulforhodamine B assay; conditions: K562, 48 h
[15] = read-out: LC50 (the source's name)

CN(C)CCNc1nc2c(c(=N)n1-c1ccccc1)c(=S)n(-c1ccccc1)c(=S)n2-c1ccccc1
growth at 10 µM (SN12C): 52.3% | growth at 10 µM (CCRF-CEM [1]): -8.26% | GI50 (NCI-H522 [2]): 2.1 µM | TGI (NCI-H522 [2]): 5.4 µM | CC50 (NCI-H522 [2]; [15]): 27.6 µM | GI50 (SK-MEL-5): 1.6 µM | LC50 (SK-MEL-5): 6.1 µM | TGI (SK-MEL-5): 3.1 µM | GI50 (HL-60(TB)): 1.5 µM | LC50 (HL-60(TB)): 7.1 µM | TGI (HL-60(TB)): 3.3 µM | GI50 (786-0 [3]): 1.4 µM | LC50 (786-0 [3]): 21.4 µM | TGI (786-0 [3]): 4.3 µM | GI50 (SR): 1.4 µM | LC50 (SR): 8.2 µM | TGI (SR): 3.3 µM | GI50 (T47D [4]): 2.1 µM | LC50 (T47D [4]): 30.5 µM | TGI (T47D [4]): 5.4 µM | growth at 10 µM (OVCAR-5): 63.1% | GI50 (SK-OV-3): 10.3 µM | TGI (SK-OV-3): 24.1 µM | CC50 (SK-OV-3; [15]): 56.7 µM | growth at 10 µM (MDA-MB-435 [5]): -64.5% | GI50 (MDA-MB-435 [6]): 1.9 µM | TGI (MDA-MB-435 [6]): 4.7 µM | CC50 (MDA-MB-435 [6]; [15]): 22.1 µM | growth at 10 µM (T47D [7]): -19.4% | growth at 10 µM (SW-620): -59.1% | GI50 (UO-31): 1.6 µM | LC50 (UO-31): 9.6 µM | TGI (UO-31): 3.9 µM | GI50 (CCRF-CEM [8]): 1.4 µM | LC50 (CCRF-CEM [8]): 9.2 µM | TGI (CCRF-CEM [8]): 3.6 µM | growth at 10 µM (SF-268): 24% | GI50 [9]: 2.3 µM | LC50 [9]: 43 µM | TGI [9]: 6.8 µM | GI50 (HCT-116): 2.7 µM | TGI (HCT-116): 16 µM | growth at 10 µM (IGROV-1 [10]): 36.3% | GI50 (SF-295): 2.9 µM | TGI (SF-295): 8.3 µM | CC50 (SF-295; [15]): 51.1 µM | growth at 10 µM [11]: 39.8% | growth at 10 µM (NCI-H522 [12]): 3.16% | GI50 (IGROV-1 [13]): 8.1 µM | TGI (IGROV-1 [13]): 23 µM | CC50 (IGROV-1 [13]; [15]): 57.5 µM | growth at 10 µM (NCI-H322M): 58.5% | growth at 10 µM (SNB-75): 79% | growth at 10 µM (SNB-19): 26.1% | GI50 (HT-29): 1.4 µM | TGI (HT-29): 3.4 µM | CC50 (HT-29; [15]): 8.3 µM | growth at 10 µM (786-0 [14]): -83.5% | growth at 10 µM (COLO 205): 6.65% | GI50 (RPMI-8226): 0.4 µM | TGI (RPMI-8226): 2.2 µM | CC50 (RPMI-8226; [15]): 7.3 µM | growth at 10 µM (ACHN): 28.3% | growth at 10 µM (A549): 35.4% | GI50 (K562): 0.4 µM | LC50 (concentration killing 50% of cells) (K562): 6.8 µM | TGI (K562): 2.2 µM
